In patent US20030225029A1 (priority 2002, published 2003):
Structures can show the parent of a compound that is named as a salt. Where two headings read alike, the source gives them in different places.

Legend:
friend leukemia virus = details: under conditions that allowed normal weight gain; cited from earlier work
HIV-1 [1] = details: T-cell lines; cited from earlier work
HIV-1 [2] = details: cited from earlier work; for Impact of monotherapy: log decrease in HIV-1 RNA: for six months to one year
[3] = in vivo; cited from earlier work
[4] = in vivo; cited from earlier work; remark: listed apart in the source
HIV-1 [5] = details: PBMC; cited from earlier work
HCV replicon RNA = assay: HCV replicon system in Huh7 cells, Q-RT-PCR of replicon RNA; format: cell-based
[6] = system: host DNA and RNA polymerases; assay: Reduction of cellular DNA (rDNA) or RNA (rRNA) levels in Huh7 replicon cells; format: cell-based
[7] = system: locally advanced or metastatic NSCLC; details: 28-day cycle, cited from earlier work; for objective response rate: first-line NSCLC
[8] = system: stage IIIB or Stage 1V NSCLC; details: 21-day cycle, cited from earlier work
HCV = assay: Antiviral activity of gemcitabine after single treatment in an HCV-infected patient; format: in vivo, Human
Source text: Before the second dosage the baseline viral load was 6.49 log copies/mL. […] The HCV RNA measurement eight hours after the second dosage was 4.04 log copies/mL, indicating an approximate 2.5 log drop in eight hours.

[9] = target: deoxycytidine kinase (dCK) (Cricetulus griseus, UniProt G3I4C0); details: phosphorylation to the monophosphate; partially purified enzyme from CHO cells; cited from earlier work
[10] = in vivo; cited from earlier work; remark: listed apart in the source
[11] = cited from earlier work
[12] = human, in vivo; cited from earlier work
[13] = system: locally advanced or metastatic pancreatic cancer; details: 1000 mg/m^2 by 30 min infusion once weekly; 63 patients per arm; cited from earlier work
[14] = human, in vivo; cited from earlier work; remark: listed apart in the source
pancreatic cancer = details: 63 patients previously treated with 5-FU; cited from earlier work
cytidine deaminase = cytidine deaminase (Homo sapiens, UniProt P32320); details: intracellular cytidine deaminase; cited from earlier work
human DNA polymerase a = target: T1, human DNA polymerase a (Homo sapiens, UniProt P09884); details: dCTP over dFdCTP; cited from earlier work
T1 sequence (P09884 1-1462): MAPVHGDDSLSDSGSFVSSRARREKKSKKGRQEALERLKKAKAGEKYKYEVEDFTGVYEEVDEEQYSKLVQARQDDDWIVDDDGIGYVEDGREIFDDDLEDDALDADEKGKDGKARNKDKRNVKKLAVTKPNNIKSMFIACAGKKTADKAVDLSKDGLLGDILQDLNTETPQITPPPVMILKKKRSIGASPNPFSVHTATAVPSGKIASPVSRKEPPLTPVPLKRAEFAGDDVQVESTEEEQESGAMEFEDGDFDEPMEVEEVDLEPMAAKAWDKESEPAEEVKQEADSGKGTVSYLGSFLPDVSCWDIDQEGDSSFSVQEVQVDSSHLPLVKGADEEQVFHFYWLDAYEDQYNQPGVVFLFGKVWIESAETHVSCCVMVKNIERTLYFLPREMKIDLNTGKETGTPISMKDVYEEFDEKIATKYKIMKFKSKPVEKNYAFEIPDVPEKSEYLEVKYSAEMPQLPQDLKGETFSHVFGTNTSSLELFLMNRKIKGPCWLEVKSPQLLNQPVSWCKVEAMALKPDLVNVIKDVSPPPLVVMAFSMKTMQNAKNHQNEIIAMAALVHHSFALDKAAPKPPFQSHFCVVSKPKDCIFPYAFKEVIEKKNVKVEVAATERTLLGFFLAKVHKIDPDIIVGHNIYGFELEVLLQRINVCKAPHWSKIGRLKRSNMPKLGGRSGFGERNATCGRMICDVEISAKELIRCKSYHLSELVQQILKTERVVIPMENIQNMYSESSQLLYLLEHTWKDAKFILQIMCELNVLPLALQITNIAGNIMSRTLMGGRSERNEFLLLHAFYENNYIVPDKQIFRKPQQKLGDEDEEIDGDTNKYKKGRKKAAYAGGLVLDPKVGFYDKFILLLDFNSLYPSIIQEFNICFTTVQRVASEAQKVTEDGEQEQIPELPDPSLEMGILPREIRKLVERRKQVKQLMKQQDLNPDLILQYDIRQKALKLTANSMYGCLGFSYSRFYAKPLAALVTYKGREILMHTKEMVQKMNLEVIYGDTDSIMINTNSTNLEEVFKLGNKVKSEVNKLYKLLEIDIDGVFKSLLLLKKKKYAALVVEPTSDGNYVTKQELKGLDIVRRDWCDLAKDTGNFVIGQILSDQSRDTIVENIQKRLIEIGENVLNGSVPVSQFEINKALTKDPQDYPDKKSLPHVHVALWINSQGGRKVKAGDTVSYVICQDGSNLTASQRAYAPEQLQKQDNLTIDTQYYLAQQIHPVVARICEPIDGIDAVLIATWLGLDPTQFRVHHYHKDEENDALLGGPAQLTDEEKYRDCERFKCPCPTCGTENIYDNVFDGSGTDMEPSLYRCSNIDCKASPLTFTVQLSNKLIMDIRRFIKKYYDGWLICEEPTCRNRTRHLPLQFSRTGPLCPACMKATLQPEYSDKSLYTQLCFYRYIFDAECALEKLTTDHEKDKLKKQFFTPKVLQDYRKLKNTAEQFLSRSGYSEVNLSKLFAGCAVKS

human DNA polymerase ε = human DNA polymerase ε (Homo sapiens, UniProt Q07864); details: dCTP over dFdCTP; cited from earlier work
human DNA polymerase ε, sequence (Q07864 whole entry): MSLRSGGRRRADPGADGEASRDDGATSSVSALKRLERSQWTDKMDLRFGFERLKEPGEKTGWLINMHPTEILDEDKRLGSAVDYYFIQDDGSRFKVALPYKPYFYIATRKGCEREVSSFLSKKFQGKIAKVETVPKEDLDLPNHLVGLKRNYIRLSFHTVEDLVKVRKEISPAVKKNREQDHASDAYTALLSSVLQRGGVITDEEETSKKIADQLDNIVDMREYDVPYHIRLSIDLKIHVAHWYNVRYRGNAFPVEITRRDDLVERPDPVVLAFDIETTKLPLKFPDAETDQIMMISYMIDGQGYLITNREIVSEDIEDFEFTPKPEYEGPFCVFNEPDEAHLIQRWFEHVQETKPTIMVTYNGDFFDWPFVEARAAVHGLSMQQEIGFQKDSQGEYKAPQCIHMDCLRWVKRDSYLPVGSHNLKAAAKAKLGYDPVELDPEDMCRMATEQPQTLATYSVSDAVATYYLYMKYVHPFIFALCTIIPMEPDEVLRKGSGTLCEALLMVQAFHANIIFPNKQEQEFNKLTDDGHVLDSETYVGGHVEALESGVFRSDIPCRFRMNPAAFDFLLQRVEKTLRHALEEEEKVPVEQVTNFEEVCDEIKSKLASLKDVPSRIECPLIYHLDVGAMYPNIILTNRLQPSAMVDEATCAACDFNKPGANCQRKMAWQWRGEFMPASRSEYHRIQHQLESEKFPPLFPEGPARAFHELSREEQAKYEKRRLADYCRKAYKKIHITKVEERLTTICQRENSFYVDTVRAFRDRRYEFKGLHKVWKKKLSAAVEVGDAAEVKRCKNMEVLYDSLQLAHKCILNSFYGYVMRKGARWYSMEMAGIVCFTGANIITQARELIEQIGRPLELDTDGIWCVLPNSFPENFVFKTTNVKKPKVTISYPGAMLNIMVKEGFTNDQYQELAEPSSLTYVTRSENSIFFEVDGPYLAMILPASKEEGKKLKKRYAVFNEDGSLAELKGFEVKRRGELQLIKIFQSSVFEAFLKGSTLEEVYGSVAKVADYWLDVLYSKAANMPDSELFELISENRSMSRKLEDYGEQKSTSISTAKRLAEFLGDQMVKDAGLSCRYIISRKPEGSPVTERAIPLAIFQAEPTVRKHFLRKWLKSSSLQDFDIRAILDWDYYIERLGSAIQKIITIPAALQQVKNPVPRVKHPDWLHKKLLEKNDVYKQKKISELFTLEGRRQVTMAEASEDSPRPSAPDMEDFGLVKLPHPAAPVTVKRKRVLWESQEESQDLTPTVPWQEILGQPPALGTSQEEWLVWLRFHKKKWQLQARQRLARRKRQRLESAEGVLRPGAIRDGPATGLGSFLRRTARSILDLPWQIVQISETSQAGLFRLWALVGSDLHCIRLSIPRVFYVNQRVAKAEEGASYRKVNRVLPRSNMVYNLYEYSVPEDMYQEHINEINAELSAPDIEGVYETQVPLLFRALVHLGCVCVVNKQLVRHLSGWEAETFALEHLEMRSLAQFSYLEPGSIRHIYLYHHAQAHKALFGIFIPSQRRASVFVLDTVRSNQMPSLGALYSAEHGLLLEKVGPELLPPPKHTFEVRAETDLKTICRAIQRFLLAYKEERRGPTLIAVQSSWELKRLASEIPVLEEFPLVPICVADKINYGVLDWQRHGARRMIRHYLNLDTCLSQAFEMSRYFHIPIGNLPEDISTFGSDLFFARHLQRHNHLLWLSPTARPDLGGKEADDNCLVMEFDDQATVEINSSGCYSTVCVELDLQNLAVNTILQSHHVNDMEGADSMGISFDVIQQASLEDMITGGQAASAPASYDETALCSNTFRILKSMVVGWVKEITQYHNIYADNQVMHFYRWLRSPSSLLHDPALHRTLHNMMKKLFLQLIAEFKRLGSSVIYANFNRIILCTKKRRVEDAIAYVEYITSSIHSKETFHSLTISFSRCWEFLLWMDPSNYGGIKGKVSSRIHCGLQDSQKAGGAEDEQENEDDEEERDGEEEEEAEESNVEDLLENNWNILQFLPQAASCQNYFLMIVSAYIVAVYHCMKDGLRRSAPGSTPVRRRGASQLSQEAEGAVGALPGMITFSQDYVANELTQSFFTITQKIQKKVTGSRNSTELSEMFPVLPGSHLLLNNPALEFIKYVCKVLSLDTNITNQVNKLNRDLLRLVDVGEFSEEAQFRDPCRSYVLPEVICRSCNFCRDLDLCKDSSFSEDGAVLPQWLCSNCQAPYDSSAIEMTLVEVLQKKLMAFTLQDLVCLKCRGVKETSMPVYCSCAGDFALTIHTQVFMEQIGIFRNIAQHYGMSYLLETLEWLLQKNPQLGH

deoxycytidine kinase (dCK), sequence (G3I4C0 entry or part of it): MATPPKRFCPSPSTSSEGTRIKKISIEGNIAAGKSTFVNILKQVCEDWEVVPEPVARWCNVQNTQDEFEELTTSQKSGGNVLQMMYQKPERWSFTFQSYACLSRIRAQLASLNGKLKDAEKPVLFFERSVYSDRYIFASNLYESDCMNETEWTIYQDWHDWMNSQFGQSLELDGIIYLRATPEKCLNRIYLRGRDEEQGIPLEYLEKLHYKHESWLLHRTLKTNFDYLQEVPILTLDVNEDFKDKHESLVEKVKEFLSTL
cytidine deaminase, sequence (P32320 whole entry): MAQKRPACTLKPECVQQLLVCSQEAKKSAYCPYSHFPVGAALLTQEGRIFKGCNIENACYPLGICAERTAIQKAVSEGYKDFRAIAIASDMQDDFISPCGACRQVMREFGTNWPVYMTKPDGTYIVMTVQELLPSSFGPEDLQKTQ

Nc1ccn([C@@H]2O[C@H](CO)[C@@H](O)C2(F)F)c(=O)n1 [cytidine analog]
inhibition of polyerythroblastosis (friend leukemia virus): 90%
inhibition of spleen enlargement (friend leukemia virus): 90%

Cc1cn([C@H]2CC(N=[N+]=[N-])[C@@H](CO)O2)c(=O)[nH]c1=O (stereo partly shown) [Zidovudine, 1-(3′Azido-2′-deoxyribosyl)thymine]
EC50 (HIV-1 [1]): 5 to 6 nM
Impact of monotherapy: log decrease in HIV-1 RNA (HIV-1 [2]): One log decrease in HIV-1 RNA for six months to one year 1
Parent drug plasma-serum half-life [3]: 0.8 to 1.9 h
Adverse events [4]: Nausea, vomiting, headache, neutropenia, anemia, insomnia
EC50 (HIV-1 [5]): 4 to 25 nM

O=c1ccn([C@@H]2O[C@H](CO)[C@@H](O)C2(F)F)c(=O)[nH]1 [dFdU, 2′,2′-difluorodeoxyuridine]
dCT HCV (HCV replicon RNA; 7.0 μM): 6.39
ddct (HCV replicon RNA; 7.0 μM, HCV dCt minus rRNA dCt): 4.42
dCt rRNA ([6]; 7.0 μM): 1.96

N.N.[Cl][Pt][Cl] [cisplatin]
objective response rate [7]: 10%

Cc1cn([C@H]2C=C[C@@H](CO)O2)c(=O)[nH]c1=O [Stavudine, 3′-deoxy-2′,3′-didehycrothymidine]
EC50 (HIV-1 [1]): 1 to 25000 nM
Impact of monotherapy: log decrease in HIV-1 RNA (HIV-1 [2]): ˜0.8 log decrease in HIV-1 RNA for six months to one year
Parent drug plasma-serum half-life [3]: 1.0 to 1.6 h
Adverse events [4]: Peripheral neuropathy
EC50 (HIV-1 [5]): 9 nM

gemcitabine plus cisplatin
median time to disease progression and objective response rates compared to etoposide plus cisplatin [8]: significantly greater
survival, difference between the two treatment arms ([8]; vs etoposide plus cisplatin): no significant difference
objective response rate [7]: 26%
Median survival time and median time to disease progression compared to cisplatin alone [7]: significantly greater

Nc1ccn([C@@H]2O[C@H](CO)[C@@H](O)C2(F)F)c(=O)n1 [gemcitabine HCl]
tolerance (HCV; 1200 mg in 1000 minutes associated with oxaliplatine): acceptable

Abacavir
EC50 (HIV-1 [1]): 4100 nM
Impact of monotherapy: log reduction in HIV-1 RNA (HIV-1 [2]; at four weeks): Approximate 1.8 log reduction in HIV-1 RNA at four weeks
Parent drug plasma-serum half-life [3]: 1.0 to 2.0 h
Adverse events [4]: Nausea, vomiting, headache, (hypersensi- tivity reaction)

Nc1ccn([C@H]2CC[C@@H](CO)O2)c(=O)n1 [Zalcitabine, 2′,3′-dideoxycytidine]
EC50 (HIV-1 [1]): 30 to 50 nM
Impact of monotherapy (comparison in words) (HIV-1 [2]; in vivo): Less effective than either ddI or AZT
Parent drug plasma-serum half-life [3]: 1.0 to 3.0 h
Adverse events [4]: Peripheral neuropathy, mouth ulcers
EC50 (HIV-1 [5]): 2 to 160 nM

Nc1ccn([C@H]2C[C@H](O)[C@@H](CO)O2)c(=O)n1 [deoxycytidine]
Km [9]: 1.6 µM

NC(=O)c1ncn([C@@H]2O[C@H](CO)[C@@H](O)[C@H]2O)n1 [Ribavirin]
teratogenicity [10]: teratogenic

O=c1[nH]cnc2c1ncn2[C@H]1CC[C@@H](CO)O1 [Didanosine, 2′,3′-dideoxyinosine]
EC50 (HIV-1 [1]): 2 to 20 nM
Impact of monotherapy: log decrease in HIV-1 RNA (HIV-1 [2]): ˜0.8 log decrease in HIV-1 RNA for six months to one year
Parent drug plasma-serum half-life [3]: 0.6 to 2.7 h
Adverse events [4]: Diarrhea, nausea, vomiting, peripheral neuropathy, pancreatitis
EC50 (HIV-1 [5]): 10 nM

Nc1ccn([C@@H]2O[C@H](CO)[C@@H](O)C2(F)F)c(=O)n1 [Gemcitabine, β-D-2′,2′-difluorocytidine]
half-life ([11]; after short infusion (<70 min)): 0.533 to 1.53 h
Volume of distribution ([11]; human, in vivo): 370 L/m^2
ADVERSE EFFECTS [12]: Thrombocytopenia,
dose-limiting toxicity [12]: myelosuppression
Km [9]: 3.6 µM
reduction of the replicon HCV RNA (FIG. 2) (HCV replicon RNA; 4-days incubation): dose-dependant reduction
EC90 (HCV replicon RNA; Hepatitis C virus, Huh-7, 96 h, Huh7 cells, 4-days incubation, read-out: EC90 (1-log reduction of replicon RNA) (converted)): ~70 nM
EC50 (HCV replicon RNA; Hepatitis C virus, Huh-7, Huh7 cells harboring self-replicating HCV RNA, read-out: EC50, reduction of HCV RNA levels): 40 nM
clinical benefit response, survival, and time to disease progression compared to 5-FU [13]: statistically significant increases
plasma protein binding [14]: negligible
clinical benefit response rate (pancreatic cancer): 27%
median survival (pancreatic cancer): 3.9 months
IC50 ([6]; Homo sapiens, Huh-7): 240 nM
Km (cytidine deaminase): 96 µM
baseline viral load (HCV; before the second dosage, day after first 1200 mg dose): 6.49 log copies/mL
HCV RNA measurement (HCV; eight hours after the second dosage (approximately 700 mg)): 4.04 log copies/mL
drop in HCV RNA (HCV; in eight hours after the second dosage): ~2.5 log

Nc1ccn([C@@H]2O[C@H](COP(=O)(O)OP(=O)(O)OP(=O)(O)O)[C@@H](O)C2(F)F)c(=O)n1 [dFdCTP]
preference of the polymerase for the normal nucleotide (dCTP) (human DNA polymerase a): 20 fold
preference of the polymerase for the normal nucleotide (dCTP) (human DNA polymerase ε): 20 fold

Nc1nc(=O)n([C@@H]2CS[C@H](CO)O2)cc1F [Emtricitabine]
EC50 (HIV-1 [1]): 9 to 500 nM
Impact of monotherapy: log reduction (HIV-1 [2]; at 14 days): ˜2 log reduction at 14 days
Parent drug plasma-serum half-life [3]: 1.0 to 4.0 h
Adverse events [4]: Anemia
EC50 (HIV-1 [5]): 0.7 to 10 nM
